Measurements from patent US8710224B2, “Heterocyclic compounds as CCR2B antagonists” (AstraZeneca AB, priority 2004, dated 2014).

Target: T1, recombinant human CCR5 receptor (Homo sapiens, UniProt P51681)
T1 construct: expressed in transfected cells; host or cells: Chinese hamster ovary (CHO) cells; membranes
Assay: Radioligand binding assay for inhibition of the binding of MIP-1α
Conditions: displacement of 0.1 nM iodinated MIP-1α; membranes of Chinese hamster ovary cells expressing CCR5
Outline: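 Membranes from CHO cells expressing recombinant human CCR5 were incubated with 0.1 nM iodinated MIP-1α, scintillation proximity beads and compound at various concentrations. Bound radioligand was measured by scintillation counting.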

T1 sequence (P51681 whole entry): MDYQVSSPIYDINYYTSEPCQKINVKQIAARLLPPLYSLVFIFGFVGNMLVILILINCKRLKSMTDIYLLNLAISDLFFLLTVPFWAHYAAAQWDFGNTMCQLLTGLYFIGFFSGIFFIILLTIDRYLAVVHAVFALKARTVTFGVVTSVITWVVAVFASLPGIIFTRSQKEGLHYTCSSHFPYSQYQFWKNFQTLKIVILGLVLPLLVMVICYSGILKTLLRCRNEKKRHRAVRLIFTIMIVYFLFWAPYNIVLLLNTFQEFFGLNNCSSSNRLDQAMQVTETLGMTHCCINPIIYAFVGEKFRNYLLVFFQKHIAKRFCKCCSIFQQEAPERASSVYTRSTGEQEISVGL

SMILES | IC50
CC(C)N1CCN[C@@H](C(=O)N2CCN(C(=O)Nc3ncc(Cl)s3)CC2)C1 [Example 264, N-(5-Chloro-1,3-thiazol-2-yl)-4-{[(2R)-4-isopropylpiperazin-2-yl]carbonyl}piperazine-1-carboxamide] | < 10 µM
CCN1CCN[C@@H](C(=O)N2CCN(C(=O)Nc3ccc(Cl)c(Cl)c3)CC2)C1 [Example 133, N-(3,4-Dichlorophenyl)-4-{[(2R)-4-ethylpiperazin-2-yl]carbonyl}piperazine-1-carboxamide] | < 10 µM
O=C(Nc1ccc(Cl)c(Cl)c1)N1CCN(C[C@@H]2CCCN(CC3CC3)C2)CC1 [Example 19, 4-{[(3R)-1-(cyclopropylmethyl)-piperidin-3-yl]methyl}-N-(3,4-dichlorophenyl)-piperazine-1-carboxamide] | < 10 µM
O=C(Nc1ccc(Cl)c(Cl)c1)N1CCN(C[C@@H]2CCCN(Cc3c[nH]nc3-c3cccs3)C2)CC1 [Example 199, N-(3,4-Dichlorophenyl)-4-[((3R)-1-{[3-(2-thienyl)-1H-pyrazol-4-yl]methyl}piperidin-3-yl)methyl]piperazine-1-carboxamide] | < 10 µM
CC(C)N1CCN[C@@H](C(=O)N2CCN(C(=O)Nc3ccc(Cl)c(Cl)c3)CC2)C1 [Example 134, N-(3,4-dichlorophenyl)-4-{[(2R)-4-isopropylpiperazin-2-yl]carbonyl}piperazine-1-carboxamide] | < 10 µM
